This is an account of results in US20250296955A1, “PIN1 TARGETING COMPOUNDS AND DEGRADERS AND METHODS THEREOF” (The Regents of the University of California, priority 2024, published 2025).

Where a SMILES comes first, the peptide text is derived from it. [ ]: non-standard residue; d: D form. The star is where a group is joined. Phe(4-NO2) = N[C@@H](Cc1ccc([N+](=O)[O-])cc1)C(=O)O; Trp(5-OH) = N[C@@H](Cc1c[nH]c2ccc(O)cc12)C(=O)O; Trp(5-F) = N[C@@H](Cc1c[nH]c2ccc(F)cc12)C(=O)O; Phe(3-CN) = N#Cc1cccc(C[C@H](N)C(=O)O)c1; Pip = O=C(O)[C@@H]1CCCCN1; ClAc = O=C(CCl)*

Assay [1] concerns the target T1, Pin1 (Homo sapiens, UniProt Q13526). Nature of the assay: DELFIA displacement assay (displacement of biotinylated D-peptide from 6His-Pin1). The class given is binding. On the set-up: human Pin1 (residues 1-163); made in house; host or cells: E. coli BL21 (DE3) gold pLysS. The source says: (§1) Important to the success of structure activity relations studies, robust biochemical, biophysical, and cell-based assays were implemented that enabled rapid and iterative evaluations of test Pin1 targeting agents. First, the DELFIA (Dissociation-enhanced lanthanide fluorescent immunoassay) assay platform was used to derive a robust heterogeneous assay to monitor the ability of test agents to displace the binding between Pin1 and the D-Peptide (Table 1), which was obtained in a biotinylated form (FIG. 10). […] Second, for an orthogonal biophysical assay denaturation thermal shift measurements were used. Pin1 was incubated with vehicle control (buffer with 1% DMSO), or test agents at protein: ligand ratio of 1:2 (20 μM protein-40 μM compound) for 10 min at 10° C. in the presence of the fluorescent dye SYPRO Orange. The samples were gradually exposed to increasing temperature (linear gradient from 10° C. to 95° C.), causing the protein to unfold. This unfolding allowed the fluorescent dye to bind to the protein's exposed hydrophobic residues, resulting in an increase in fluorescence. The thermal shift assay measures the protein's melting temperature (Tm), which is the temperature at which the protein denatures by 50%. Ligands can affect a protein target to thermal denaturation, which could manifest in a positive or negative shift in the protein denaturation temperature (ΔTm) (Bai N, Roder H, Dickson A, & Karanicolas J (2019) Scientific Reports 9; and Kranz J K & Schalk-Hihi C (2011) Fragment-Based Drug Design: Tools, Practical Approaches, and Examples 493:277-298). Using these two assays, a series of commercially available Pin1 inhibitors were profiled (Table 1). The non-covalent agent D-peptide resulted only moderately active, with an IC50 value of ˜3 μM that closely resembled the dissociation constant for this agent determined via isothermal titration calorimetry, and the ˜ 3 μM IC50 value as reported by a fluorescence polarization assay (Pinch B J, et al. (2020) Nat Chem Biol 16(9):979-987). […] (Table 1) was observed.
For the reported covalent agents such as sulfopin (Dubiella C, et al. (2021) Nat Chem Biol 17(9):954-963), BJP-07-017-3 (Pinch B J, et al. (2020) Nat Chem Biol 16(9):979-987), or KPT-6566 (Campaner E, et al. (2017) Nat Commun 8:15772), a 6-h pre-incubation period was included in the DELFIA assay to allow the covalent reaction to take place. For those agents, IC50 values that fell in the low nanomolar range were observed, consistent with what was reported previously for those compounds. […] To make those determinations in a broader panel of cancer cell lines three pancreatic cancer cell lines, BxPC3, MIA-PaCa-2, and PANC-1, the breast cancer cell line MDA-MB-231, the prostate cancer cell line PC3, and the non-small cell lung cancer cell line A549 were chosen. Each cell line represents various states of KRAS activating mutations (for example BxPC3 is wt-KRAS, while MIAPaCa2 carries the KRAS(G12C) mutation, and the PANC-1 the KRAS(G12D) (Miquel M, Zhang S, & Pilarsky C (2021) Front Cell Dev Biol 9:748631), A549 is KRAS(G12S) (Wang H, et al. (2019) EBioMedicine 49:106-117), MDA-MB-231 is KRAS(G13D) (Kim R K, et al. (2015) Exp Mol Med 47(1):e137), PC3 is wt-KRAS (Bouali S, et al. (2009) Oncol Rep 21(3):731-735). Pin1 protein levels in these cell lines were established using a specific Pin1 antibody in western blot analyses (FIG. 1A). The data confirmed that all these selected human cancer cell lines expressed a significant level of Pin1 (FIG. 1A).
Each well of 96-well streptavidin-coated plates (PerkinElmer) was incubated with 100 μL of 200 nM biotinylated D-peptide for 2 h and washed 3 times with a wash solution (PerkinElmer). Subsequently, a mixture containing Pin1, and a serial dilution of the test compounds were pre-incubated for 6 h. Eu-N1-labeled anti-6x-His antibody (PerkinElmer, 1:2000) was then added to this mixture and further incubated in the biotinylated D-peptide-bound plates for another 2 h. […]

Assay [2] concerns the target T1, Pin1. Nature of the assay: Denaturation thermal shift assay (SYPRO Orange). The class given is binding. On the set-up: human Pin1 (residues 1-163); made in house; host or cells: E. coli BL21 (DE3) gold pLysS.
Description: as §1
Thermal shift assays for Pin1 alone and in the presence of the inhibitors were obtained with a BioRad CFX Connect Real-Time PCR Detection System. Each data point was collected in quadruplicate. Each sample was prepared using buffer 50 mM Phosphate pH 7.5, 150 mM NaCl, 1% DMSO. Protein: ligand ratio used was 1:2 (20 μM protein-40 μM compound), and SYPRO Orange was used. Incubation of the Pin1 protein with the compounds was performed at 10° C. for 10 min. Samples were then heated from 10 to 95° C. with heating increments of 0.05° C., over 30 min. Fluorescence intensity was measured within the excitation/emission ranges 470-505/540-700 nm.

[3] abbreviates: Table 3, single transition, ± SE of four replicates.
Setting [4] is: Table 4, percentage in brackets after first ΔTm.
[5] abbreviates: Table 4, percentage in brackets after second ΔTm.
Setting [6] is: Table 4, two transitions observed, likely incomplete complex formation.
Where [7] appears, read: Table 2, ± SE of four replicates.

T1 sequence (Q13526 whole entry, the tested form may be a part): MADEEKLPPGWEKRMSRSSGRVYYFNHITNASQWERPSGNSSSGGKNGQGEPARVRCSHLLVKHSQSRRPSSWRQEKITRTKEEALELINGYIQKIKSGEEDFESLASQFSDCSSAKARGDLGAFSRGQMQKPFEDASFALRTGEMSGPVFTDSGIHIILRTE

In the case of `NC(=O)[C@H](Cc1c[nH]c2ccccc12)NC(=O)[C@@H]1CCCCN1C(=O)[C@H](Cc1ccc([N+](=O)[O-])cc1)NC(=O)CCl` [158G2] (ClAc-[Phe(4-NO2)]-[Pip]-Trp-NH2), the IC50 (in general, the point on the concentration scale where inhibition reaches its midpoint) in assay [1] (Table 3, ± SD from duplicates) is 134 ± 13 nM. The “ΔTm (° C.)” value in assay [2] (setting [3]) was −10.16 ± 0.04 °C.

Turning to `O=C(NCCc1c[nH]c2cc(Cl)cc(Cl)c12)[C@@H]1CCCCN1C(=O)[C@@H]1Cc2c([nH]c3ccccc23)CN1C(=O)CCl` [164A5], the IC50 in assay [1] (Table 4, ± SD from duplicates) came out at 433 ± 65 nM. In assay [2] (setting [4]), the “share of first denaturation transition” value came to 70%. The “share of second denaturation transition” value in assay [2] (setting [5]) came out at 30%. For the same compound, in assay [2] (setting [6]), the “ΔTm (° C.), first of two denaturation transitions” value was “+0.66 ± 0.28 °C”. For the same compound, in assay [2] (Table 5, only one transition given), the “ΔTm (° C.)” value is “+0.66 ± 0.28 °C”.

As to `N#Cc1cccc(C[C@H](NC(=O)CCl)C(=O)N2CCCC[C@H]2C(=O)N[C@@H](Cc2c[nH]c3ccccc23)C(N)=O)c1` [158G3] (ClAc-[Phe(3-CN)]-[Pip]-Trp-NH2), the IC50 in assay [1] (Table 3, ± SD from duplicates) amounted to 132 ± 21 nM. Besides, in assay [2] (setting [3]), the “ΔTm (° C.)” value is −10.06 ± 0.07 °C.

Regarding `NC(=O)[C@H](Cc1c[nH]c2ccccc12)NC(=O)[C@@H]1CCCCN1C(=O)[C@H](Cc1ccccc1)NC(=O)CCl` [158D10] (HELM PEPTIDE1{[O=C(CCl)[*:2]].F.[O=C([C@@H]1CCCCN1[*:1])[*:2]].W.[am]}$$$$V2.0), the half-maximal inhibitory concentration (IC50) in assay [1] (Table 2, ± SD from duplicates) stood at 146 ± 19 nM. For the same compound, in assay [2] (setting [7]), the “ΔTm (° C.)” value was −10.40 ± 0.04 °C.

In turn, `NC(=O)[C@H](Cc1c[nH]c2ccccc12)NC(=O)[C@@H]1C[C@H]2CCCC[C@@H]2N1C(=O)[C@H](Cc1c[nH]c2ccccc12)NC(=O)CCl` [164A1] showed an IC50 in assay [1] (Table 5) of 1830 ± 394 nM. Further, the “share of first denaturation transition” value in assay [2] (setting [4]) is reported as 80%. In addition, the “share of second denaturation transition” value in assay [2] (setting [5]) is recorded as 20%. For the same compound, the “ΔTm (° C.), first of two denaturation transitions” value in assay [2] (setting [6]) was −0.38 ± 0.15 °C.

On to `O=C(CCl)N[C@@H](Cc1cccc(O)c1)C(=O)N1CCCC[C@H]1C(=O)NCCc1c[nH]c2cc(Cl)cc(Cl)c12` [164A2], for which the IC50 in assay [1] (Table 3, ± SD from duplicates) was 289 ± 23 nM. In addition, in assay [2] (Table 3, percentage in brackets after first ΔTm), the “share of first thermal shift peak” value is reported as 10%. Moreover, the “share of second thermal shift peak” value in assay [2] (Table 3, percentage in brackets after second ΔTm) stood at 90%. In addition, in assay [2] (Table 3, two peaks observed, likely incomplete complex formation), the “ΔTm (° C.), first of two peaks” value was −0.25 ± 0.31 °C.

In assay [1] (Table 3, ± SD from duplicates), `NC(=O)[C@H](Cc1c[nH]c2ccc(O)cc12)NC(=O)[C@@H]1CCCCN1C(=O)[C@H](Cc1ccccc1)NC(=O)CCl` [158F9] (ClAc-Phe-[Pip]-[Trp(5-OH)]-NH2) had a concentration for half-maximal inhibition (IC50) of 135 ± 1 nM. Moreover, the “ΔTm (° C.)” value in assay [2] (setting [3]) was −9.99 ± 0.00 °C.

`NC(=O)[C@H](Cc1c[nH]c2ccccc12)NC(=O)[C@@H]1CCCCN1C(=O)[C@H](Cc1c[nH]c2ccc(F)cc12)NC(=O)CCl` [158H8] (ClAc-[Trp(5-F)]-[Pip]-Trp-NH2) displayed an IC50 in assay [1] (Table 4, ± SD from duplicates) of 43.5 ± 0.8 nM. Moreover, the “ΔTm (° C.)” value in assay [2] (Table 4, single transition, ± SE of four replicates) is −9.81 ± 0.16 °C.

Compound `CC1(C)[C@H]2C[C@@H](C(=O)N[C@@H](Cc3c[nH]c4ccccc34)C(N)=O)N(C(=O)[C@@H]3Cc4c([nH]c5ccccc45)CN3C(=O)CCl)[C@H]21` [164A12] gave an IC50 in assay [1] (Table 4, ± SD from duplicates) of 44 ± 1 nM. Moreover, the “share of first denaturation transition” value in assay [2] (setting [4]) amounted to 30%. For the same compound, the “share of second denaturation transition” value in assay [2] (setting [5]) came out at 70%. In addition, in assay [2] (setting [6]), the “ΔTm (° C.), first of two denaturation transitions” value was “+1.03 ± 0.13 °C” and the “ΔTm (° C.), second printed of two denaturation transitions” value was −19.18 ± 0.07 °C.

Turning to `CN(C(=O)CCl)[C@@H](Cc1ccccc1)C(=O)N1CCCC[C@H]1C(=O)N[C@@H](Cc1c[nH]c2ccccc12)C(N)=O` [158D11] (HELM PEPTIDE1{[O=C(CCl)[*:2]].[meF].[O=C([C@@H]1CCCCN1[*:1])[*:2]].W.[am]}$$$$V2.0), the “ΔTm (° C.)” value in assay [2] (setting [7]) is −10.66 ± 0.04 °C.
